Key:
[1] = in vivo test (not specified further)
[2] = molecular target: T1, human neutrophil elastase (HNE) (Homo sapiens, UniProt P08246); experiment: Acute Hemorrhagic Assay: lung hemorrhage in hamsters after intratracheal HNE; assay type: in vivo, hamster; conditions: dose of 5 mg/kg by mouth, 30 min prior to administration of HNE; male Syrian hamsters
T1 construct: host or cells: exogenous human enzyme instilled into the trachea of male Syrian hamsters
T1 sequence (P08246 30-267): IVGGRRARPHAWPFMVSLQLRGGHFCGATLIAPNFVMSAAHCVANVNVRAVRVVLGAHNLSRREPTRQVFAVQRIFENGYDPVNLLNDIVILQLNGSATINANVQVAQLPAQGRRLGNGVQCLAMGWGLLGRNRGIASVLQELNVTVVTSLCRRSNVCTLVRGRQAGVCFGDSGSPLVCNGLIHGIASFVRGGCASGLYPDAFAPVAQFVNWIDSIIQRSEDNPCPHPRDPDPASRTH
Description: This assay relies on monitoring only the amount of hemorrhage in the lung following intratracheal administration of human neutrophil elastase (HNE). Hemorrhage is quantified by disrupting erythrocytes recovered in lung lavage fluid and comparing that to dilutions of whole hamster blood. […] Four hours after enzyme administration, the animals are killed with an overdose of pentobarbital sodium, the thorax opened and the lungs and trachea removed. The excised lungs are lavaged with three changes of 2 mL normal saline via a tracheal cannula. The recovered lavages are pooled, the volumes (about 5 mL) are recorded and the lavages stored at 4 °C until assayed. For calculation of the amount of blood in each sample, the thawed lavages and a sample of whole hamster blood are sonicated to disrupt erythrocytes and appropriately diluted into individual wells of a 96-well microtiter plate. The optical densities (OD) of the disrupted lavages and blood samples are determined at 405 nm. The (µL blood equivalents) / (mL lavage) are determined by comparing the OD of the test samples with the OD of the standard curve prepared from whole hamster blood. The total µL equivalents of blood recovered is determined by multiplying recovered lavage volume by the (µL blood equivalents) / (mL lavage) for each sample.

Row | SMILES | activity in an in vivo test [1] | inhibition of hemorrhage [2]
1 | CC(C)C(NC(=O)Cn1c(-c2ccccc2)ccc(N)c1=O)C(=O)C(F)(F)F (stereo not drawn) [Example 49, 2-(3-Amino-2-oxo-6-phenyl-1,2-dihydro-1-pyridyl)-N-(3,3,3-trifluoro1-isopropyl-2-oxopropyl)acetamide] | activity | –
2 | CC(C)C(NC(=O)Cn1c(-c2ccccc2)ccc(NC(=O)Cc2ccc(N)cc2)c1=O)C(=O)C(F)(F)F.Cl (stereo not drawn) [Example 159, 2-[3-(4-Aminophenylacetylamino)-2-oxo-6-phenyl-1,2-dihydro-1-pyridyl]-N-(3,3,3-trifluoro-1-isopropyl-2-oxopropyl)acetamide hydrochloride] | activity | –
3 | CC(C)C(NC(=O)Cn1c(-c2ccccc2)ccc(NC(=O)C(F)(F)F)c1=O)C(=O)C(F)(F)F (stereo not drawn) [Example 167, 2-(3-trifluoroacetylamino-2-oxo-6-phenyl-1,2-dihydro-1-pyridyl)-N-(3,3,3-trifluoro-1-isopropyl-2-oxopropyl)acetamide] | – | statistically significant inhibition of hemorrhage

From patent EP0509769B1, “Heterocyclic amides having HLE inhibiting activity” (ZENECA LIMITED, priority 1991, dated 1992)
